Data taken from ChEMBL document CHEMBL4251732, “Discovery of Novel Indoleamine 2,3-Dioxygenase 1 (IDO1) and Histone Deacetylase (HDAC) Dual Inhibitors” (ACS Med Chem Lett, 2018).
The source made the active and inactive calls. The rule behind the calls is not given here.

Experiments:
HCT-116 [1] = assay: Antiproliferative activity against human HCT116 cells after 48 hrs by CCK-8 assay; assay type: functional, cell-based; details: HCT-116, 48 h
[2] = tested on: Lewis lung carcinoma cell line; assay: Antiproliferative activity against mouse LLC cells after 48 hrs by CCK-8 assay; assay type: functional, cell-based
A549 = assay: Antiproliferative activity against human A549 cells after 48 hrs by CCK-8 assay; assay type: functional, cell-based; details: A549, 48 h
Histone deacetylase 1 = Histone deacetylase 1 (Homo sapiens, UniProt Q13547); assay: Inhibition of recombinant human full length HDAC1 using fluorogenic substrate 3 after 30 mins by fluorescence assay
Sequence of Histone deacetylase 1 (Q13547 whole entry): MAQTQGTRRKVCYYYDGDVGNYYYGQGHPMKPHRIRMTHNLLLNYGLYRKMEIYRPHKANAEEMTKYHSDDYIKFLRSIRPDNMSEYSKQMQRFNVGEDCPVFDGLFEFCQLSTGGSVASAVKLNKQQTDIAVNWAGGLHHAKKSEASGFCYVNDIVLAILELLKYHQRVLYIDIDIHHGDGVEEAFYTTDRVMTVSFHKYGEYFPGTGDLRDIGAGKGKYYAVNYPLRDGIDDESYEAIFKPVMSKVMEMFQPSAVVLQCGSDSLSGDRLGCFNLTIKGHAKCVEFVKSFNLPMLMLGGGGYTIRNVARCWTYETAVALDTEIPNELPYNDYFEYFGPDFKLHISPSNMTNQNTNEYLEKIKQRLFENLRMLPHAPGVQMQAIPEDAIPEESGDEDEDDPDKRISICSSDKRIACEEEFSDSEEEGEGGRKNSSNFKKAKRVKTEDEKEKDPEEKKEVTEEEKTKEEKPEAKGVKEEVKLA

HT-29 = assay: Antiproliferative activity against human HT-29 cells after 48 hrs by CCK-8 assay; assay type: functional, cell-based; details: HT-29, 48 h
CT26 = assay: Antiproliferative activity against mouse CT26 cells after 48 hrs by CCK-8 assay; assay type: functional, cell-based; details: CT26, 48 h
[3] = target: T1, Indoleamine 2,3-dioxygenase 1 (Homo sapiens, UniProt P14902); assay: Inhibition of recombinant human GST-tagged IDO1 (1 to 404 residues) using D-Tryptophan as substrate
Target sequence in this assay (P14902 whole entry, the tested form may be a part): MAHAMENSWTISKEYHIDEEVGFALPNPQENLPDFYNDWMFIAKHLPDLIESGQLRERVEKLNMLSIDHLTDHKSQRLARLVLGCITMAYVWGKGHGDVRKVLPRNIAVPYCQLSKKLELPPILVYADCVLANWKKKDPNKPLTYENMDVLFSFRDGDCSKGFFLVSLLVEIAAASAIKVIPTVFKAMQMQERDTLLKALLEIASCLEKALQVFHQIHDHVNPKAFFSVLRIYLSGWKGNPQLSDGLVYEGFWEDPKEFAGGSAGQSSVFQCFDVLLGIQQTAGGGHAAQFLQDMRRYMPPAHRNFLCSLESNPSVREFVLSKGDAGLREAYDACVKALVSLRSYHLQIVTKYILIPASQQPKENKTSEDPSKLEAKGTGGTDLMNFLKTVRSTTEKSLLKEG

[4] = target: T1, Indoleamine 2,3-dioxygenase 1; assay: Inhibition of recombinant human GST-tagged IDO1 (1 to 404 residues) at 1 uM using D-Tryptophan as substrate relative to control
Target sequence in this assay (P14902 whole entry, looked up, the tested form may be a part): as the sequence (P14902 whole entry, the tested form may be a part) above

[5] = Half life in Sprague-Dawley rat at 100 mg/kg, po administered as single dose via gavage by LC-MS/MS analysis; assay type: ADME, organism-based; details: in vivo
[6] = AUC in immunocompetent C57BL/6 mouse implanted with mouse LLC cells at 100 mg/kg, po bid administered via gavage; assay type: ADME, organism-based; details: in vivo
[7] = AUC (0 to infinity) in Sprague-Dawley rat at 100 mg/kg, po administered as single dose via gavage by LC-MS/MS analysis; assay type: ADME, organism-based; set-up: dose 100 mg/kg, time infinity, route oral; details: in vivo
[8] = Tmax in Sprague-Dawley rat at 100 mg/kg, po administered as single dose via gavage by LC-MS/MS analysis; assay type: ADME, organism-based; details: in vivo
[9] = Cmax in Sprague-Dawley rat at 100 mg/kg, po administered as single dose via gavage by LC-MS/MS analysis; assay type: ADME, organism-based; set-up: dose 100 mg/kg, route oral; details: in vivo
[10] = Half life in immunocompetent C57BL/6 mouse implanted with mouse LLC cells at 100 mg/kg, po bid administered via gavage; assay type: ADME, organism-based; details: in vivo
HCT-116 [11] = assay: Induction of apoptosis in human HCT116 cells at 5 uM after 48 hrs by Annexin V-FITC/propidium iodide staining based flow cytometry relative to control; assay type: functional
HCT-116 [12] = assay: Induction of apoptosis in human HCT116 cells at 20 uM after 48 hrs by Annexin V-FITC/propidium iodide staining based flow cytometry relative to control; assay type: functional
HCT-116 [13] = assay: Induction of apoptosis in human HCT116 cells after 48 hrs by Annexin V-FITC/propidium iodide staining based flow cytometry; assay type: functional, cell-based
HCT-116 [14] = assay: Induction of apoptosis in human HCT116 cells at 10 uM after 48 hrs by Annexin V-FITC/propidium iodide staining based flow cytometry relative to control; assay type: functional
HCT-116 [15] = assay: Cell cycle arrest in human HCT116 cells assessed as accumulation at G2/M phase up to 48 hrs by propidium iodide staining based flow cytometry; assay type: functional
Mus musculus [16] = assay: In vivo inhibition of IDO1 in wild type C57BL/6 mouse assessed as reduction in kynurenine levels in plasma at 100 mg/kg, po administered via gavage after 8 hrs by LC-MS/MS analysis; assay type: functional; details: C57BL/6, po
Mus musculus [17] = assay: In vivo inhibition of IDO1 in wild type C57BL/6 mouse assessed as reduction in kynurenine levels in plasma at 100 mg/kg, po administered via gavage measured up to 1 hr by LC-MS/MS analysis; assay type: functional, organism-based
[18] = tested on: Lewis lung carcinoma cell line; assay: Antitumor activity against mouse LLC cells implanted in immunocompetent C57BL/6 mouse assessed as tumor growth inhibition at 100 mg/kg, po bid administered via gavage for 14 consecutive days measured every 4 days relative to control; assay type: functional; details: 96 h, read-out: TGI

| SMILES | IC50 (HCT-116 [1]) [µM] | IC50 [2] [µM] | IC50 (A549) [µM] | IC50 (Histone deacetylase 1) [µM] | IC50 (HT-29) [µM] | IC50 (CT26) [µM] | IC50 [3] [µM] | inhibition [4] [%] | also measured |
| --- | --- | --- | --- | --- | --- | --- | --- | --- | --- |
| Nc1ccccc1NC(=O)c1ccc(C(=O)NCCNc2nonc2/C(=N/O)Nc2ccc(F)c(Br)c2)cn1 | 6.36 | 15.1 | 20.7 | 0.604 | 12.2 | 23.3 | 0.26 |  |  |
| NS(=O)(=O)NCCNc1nonc1C(=NO)Nc1ccc(F)c(Br)c1 [EPACADOSTAT] |  |  |  |  |  |  |  |  | half-life [5]: 4.5 h; AUC [6]: 70.2 µM·h; AUC(0-inf) [7]: 30700 ng·h/mL; Tmax [8]: 0.8 h; Cmax [9]: 5560 ng/mL; half-life [10]: 4.5 h |
| Nc1ccccc1NC(=O)c1cccc(C(=O)NCCNc2nonc2/C(=N/O)Nc2ccc(F)c(Br)c2)c1 | 16.2 | 31.4 | 27.8 | 0.633 | 46.4 | 25.5 |  | 79 |  |
| O=C(CCCC(=O)NCCNc1nonc1/C(=N/O)Nc1ccc(F)c(Br)c1)NO | 80.2 | > 100 | > 100 | 0.121 | > 100 | > 100 | 0.133 |  |  |
| O=C(/C=C/c1cccc(C(=O)NCCNc2nonc2/C(=N/O)Nc2ccc(F)c(Br)c2)c1)NO | 12.4 | 53.3 | 41.7 | 0.0705 | 23.3 | 38.9 | 0.027 |  |  |
| O=C(CCCCCCC(=O)NCCNc1nonc1/C(=N/O)Nc1ccc(F)c(Br)c1)NO | 4.7 | 56.6 | 36 | 0.0477 | 14.9 | 97.5 | 0.14 |  | Activity (HCT-116 [11]): 25.5%; Activity (HCT-116 [12]): 44.5%; Activity (HCT-116 [13]): Dose-dependent effect; Activity (HCT-116 [14]): 31.1%; Activity (HCT-116 [15]): Active |
| NS(=O)(=O)NCCNc1nonc1/C(=N/O)Nc1ccc(F)c(Br)c1 [EPACADOSTAT] | > 100 | > 100 | > 100 |  | > 100 | > 100 |  |  | inhibition in vivo at 100 mg/kg (Mus musculus [16]): 50%; inhibition (Mus musculus [17]): Active; inhibition in vivo at 100 mg/kg [18]: 54.3% |
| Nc1ccccc1NC(=O)c1ccc(C(=O)NCCNc2nonc2/C(=N/O)Nc2ccc(F)c(Br)c2)s1 | 7.12 | 18.3 | 14.5 | 1.43 | 20.3 | 38.8 |  | 76 |  |

Further lines, with some results ahead:

| IC50 (HCT-116 [1]) [µM] | IC50 [2] [µM] | IC50 (A549) [µM] | IC50 (Histone deacetylase 1) [µM] | IC50 (HT-29) [µM] | IC50 (CT26) [µM] | IC50 [3] [µM] | inhibition [4] [%] | SMILES | also measured |
| --- | --- | --- | --- | --- | --- | --- | --- | --- | --- |
| 28.1 | > 100 | 89.8 | 0.262 | 68 | > 100 |  | 95 | O=C(NO)c1ccc(C(=O)NCCNc2nonc2/C(=N/O)Nc2ccc(F)c(Br)c2)cc1 |  |
| 29.4 | 36 | 45.5 | 0.0235 | 23.9 | 90.2 | 0.21 |  | O=C(CCCCCCn1cc(-c2ccc(C(=O)NCCNc3nonc3/C(=N/O)Nc3ccc(F)c(Br)c3)cc2)nn1)NO |  |
| 85.4 | > 100 | > 100 | 0.308 | > 100 | > 100 | 0.123 |  | O=C(CCCCC(=O)NCCNc1nonc1/C(=N/O)Nc1ccc(F)c(Br)c1)NO |  |
| 37.5 | > 100 | > 100 | 0.895 | > 100 | > 100 |  | 88 | O=C(CCCCn1cc(-c2ccc(C(=O)NCCNc3nonc3/C(=N/O)Nc3ccc(F)c(Br)c3)cc2)nn1)NO |  |
| 17.5 | 90.1 | 40.7 | 0.0092 | 28.7 | 95.5 | 0.113 |  | O=C(CCCCCC(=O)NCCNc1nonc1/C(=N/O)Nc1ccc(F)c(Br)c1)NO |  |
| 5.89 | 21.6 | 25.6 | 0.0462 | 14.2 | 12.8 | 0.168 |  | O=C(/C=C/c1ccc(C(=O)NCCNc2nonc2/C(=N/O)Nc2ccc(F)c(Br)c2)cc1)NO | Activity (HCT-116 [11]): 26.7%; Activity (HCT-116 [12]): 61.3%; Activity (HCT-116 [13]): Dose-dependent effect; Activity (HCT-116 [14]): 45.4%; Activity (HCT-116 [15]): Active |
| > 100 | > 100 | > 100 | 0.0665 | > 100 | > 100 |  | 87 | O=C(CCCCCn1cc(-c2ccc(C(=O)NCCNc3nonc3/C(=N/O)Nc3ccc(F)c(Br)c3)cc2)nn1)NO |  |
